In patent US9745319B2, “Irreversible covalent inhibitors of the GTPase K-Ras G12C” (Araxes Pharma LLC, priority 2013, dated 2017):

Biological target: T1, KRAS G12C 1-169, his-tagged protein, GDP-loaded (Homo sapiens, UniProt P01116, G12C)
T1 construct: KRAS G12C 1-169, his-tagged protein, GDP-loaded was diluted to 2 μm in buffer
Test: Biochemical assay: covalent binding to KRAS G12C analyzed by mass spectrometry
Settings: protein diluted to 2 μm, room temperature for 24 hrs, method lists 100, 30 and 10 μM final compound concentration, not stated which applies
Protocol: Test compounds were prepared as 10 mM stock solutions in DMSO (Fisher cat# BP-231-100). KRAS G12C 1-169, his-tagged protein, GDP-loaded was diluted to 2 μm in buffer (20 mM Hepes, 150 mM NaCl, 1 mM MgCl2). Compounds were tested for activity as follows:
Compounds were diluted to 50× final test concentration in DMSO in 96-well storage plates. Compound stock solutions were vortexed before use and observed carefully for any sign of precipitation. Dilutions were as follow: • For 100 μM final compound concentration, compounds were diluted to 5000 μM (5 μl 10 mM compound stock +5 μl DMSO and mixed well by pipetting. • For 30 μM final compound concentration, compounds were diluted to 1500 μM (3 μl 10 mM compound stock +17 μl DMSO) and mixed well by pipetting. • For 10 μM final compound concentration, compounds were diluted to 500 μM (2 μl 10 mM compound stock +38 μl DMSO) and mixed well by pipetting. 49 μl of the stock protein solution was added to each well of a 96-well PCR plate (Fisher cat#1423027). 1 μl of the diluted 50× compounds were added to appropriate wells in the PCR plate using 12-channel pipettor. Reactions were mixed carefully and thoroughly by pipetting up/down with a 200 μl multi-channel pipettor. The plate was sealed well with aluminum plate seal, and stored in drawer at room temperature for 24 hrs. 5 μl of 2% formic acid (Fisher cat# A117) in DI H2O was then added to each well followed by mixing with a pipette. The plate was then resealed with aluminum seal and stored on dry ice until analyzed as described below.
The above described assays were analyzed by mass spectrometry according to the following procedure:
The MS instrument is set to positive polarity, 2 GHz resolution, and low mass (1700) mode and allowed to equilibrate for 30 minutes. The instrument is then calibrated, switched to acquisition mode and the appropriate method loaded.
After another 30 minute equilibration time, a blank batch (i.e., buffer) is run to ensure equipment is operating properly. The samples are thawed at 37° C. for 10 minutes, briefly centrifuged, and transfer to the bench top. Wells A1 and H12 are spiked with 1 uL 500 uM internal standard peptide, and the plates centrifuged at 2000×g for 5 minutes. The method is then run and masses of each individual well recorded.
The masses (for which integration data is desired) for each well are pasted into the platemap and exported from the analysis. Masses for the internal standards are exported as well. The data at 50 ppm is extracted for the +19 charge state, and identity of well A1 is assigned using the internal standard spike and integrated. Peak data is exported as a TOF list and the above steps are repeated individually, for the +20, 21, 22, 23, 24, and 25 charge states.

How did the Binding % turn out when `C=CC(=O)NCC1C[C@@H]2O[C@H](CO)[C@@H](OCc3ccccc3)[C@@H]2O1` (some centres unmarked) [Compound I-1] was run?
Its Binding % is “+ (+ indicates binding activity from 0.5% to 5%)”.

With `C=CC(=O)NC[C@@H]1C[C@@H]2O[C@H](CO)[C@@H](OCc3ccccc3)[C@@H]2O1` [Compound I-2] as the compound, how does the Binding % read?
Its Binding % is “+ (+ indicates binding activity from 0.5% to 5%)”.

With `C=CC(=O)NC[C@H]1C[C@@H]2O[C@H](COCc3ccccc3)[C@@H](OCc3ccccc3)[C@@H]2O1` [Compound I-3] as the compound, how does the Binding % read?
Its Binding % is “+ (+ indicates binding activity from 0.5% to 5%)”.

How did the Binding % turn out when `C=CC(=O)NC[C@@H]1C[C@@H]2O[C@H](COCc3ccccc3)[C@@H](OCc3ccccc3)[C@@H]2O1` [Compound I-4] was run?
Its Binding % is “+ (+ indicates binding activity from 0.5% to 5%)”.

Which Binding % does the source give for `C=CS(=O)(=O)NC[C@@H]1C[C@@H]2O[C@H](COCc3ccccc3)[C@@H](OCc3ccccc3)[C@@H]2O1` [Compound I-5] here?
Its Binding % is “+++ (+++ indicates binding activity from greater than 10% to 15%)”.

`C=CS(=O)(=O)NC[C@H]1C[C@@H]2O[C@H](COCc3ccccc3)[C@@H](OCc3ccccc3)[C@@H]2O1` [Compound I-6] was tested. Which Binding % did it give?
Its Binding % is “+++ (+++ indicates binding activity from greater than 10% to 15%)”.

With `C=CS(=O)(=O)NC[C@H]1C[C@@H]2O[C@H](CO)[C@@H](OCc3ccccc3)[C@@H]2O1` [Compound I-7] as the compound, how does the Binding % read?
The Binding % was “++ (++ indicates binding activity from greater than 5% to 10%)”.

`C=Cc1ccc(S(=O)(=O)NC[C@H]2C[C@@H]3O[C@H](CO)[C@@H](OCc4ccccc4)[C@@H]3O2)cc1` [Compound I-9] was tested. Which Binding % did it give?
The Binding % was “+++ (+++ indicates binding activity from greater than 10% to 15%)”.

For `C=Cc1ccc(S(=O)(=O)NC[C@H]2C[C@@H]3O[C@H](COCc4ccccc4)[C@@H](OCc4ccccc4)[C@@H]3O2)cc1` [Compound I-10], which Binding % is on record?
The Binding % was “++++ (++++ indicates binding activity from greater than 15%)”.

`C=Cc1cccc(S(=O)(=O)NC[C@H]2C[C@@H]3O[C@H](COCc4ccccc4)[C@@H](OCc4ccccc4)[C@@H]3O2)c1` [Compound I-11] was tested. Which Binding % did it give?
Its Binding % is “++ (++ indicates binding activity from greater than 5% to 10%)”.

For `C=Cc1ccccc1S(=O)(=O)NC[C@H]1C[C@@H]2O[C@H](COCc3ccccc3)[C@@H](OCc3ccccc3)[C@@H]2O1` [Compound I-12], which Binding % is on record?
Its Binding % is “+++ (+++ indicates binding activity from greater than 10% to 15%)”.

How did the Binding % turn out when `C=Cc1cccc(S(=O)(=O)NC[C@@H]2C[C@@H]3O[C@H](COCc4ccccc4)[C@@H](OCc4ccccc4)[C@@H]3O2)c1` [Compound I-13] was run?
The Binding % was “++++ (++++ indicates binding activity from greater than 15%)”.

Which Binding % does the source give for `C=Cc1ccc(S(=O)(=O)NC[C@@H]2C[C@@H]3O[C@H](COCc4ccccc4)[C@@H](OCc4ccccc4)[C@@H]3O2)cc1` [Compound I-14] here?
The Binding % was “+++ (+++ indicates binding activity from greater than 10% to 15%)”.

How did the Binding % turn out when `C=Cc1ccccc1S(=O)(=O)NC[C@@H]1C[C@@H]2O[C@H](COCc3ccccc3)[C@@H](OCc3ccccc3)[C@@H]2O1` [Compound I-15] was run?
The Binding % was “+++ (+++ indicates binding activity from greater than 10% to 15%)”.

How did the Binding % turn out when `C=Cc1cccc(S(=O)(=O)NC[C@H]2C[C@@H]3O[C@H](CO)[C@@H](OCc4ccccc4)[C@@H]3O2)c1` [Compound I-16] was run?
Its Binding % is “++ (++ indicates binding activity from greater than 5% to 10%)”.

How did the Binding % turn out when `C=Cc1ccccc1S(=O)(=O)NC[C@@H]1C[C@@H]2O[C@H](CO)[C@@H](OCc3ccccc3)[C@@H]2O1` [Compound I-17] was run?
Its Binding % is “++++ (++++ indicates binding activity from greater than 15%)”.

`C=Cc1ccccc1S(=O)(=O)NC[C@H]1C[C@@H]2O[C@H](CO)[C@@H](OCc3ccccc3)[C@@H]2O1` [Compound I-18] was tested. Which Binding % did it give?
The Binding % was “+++ (+++ indicates binding activity from greater than 10% to 15%)”.

For `C=Cc1ccc(S(=O)(=O)NC[C@H]2C[C@@H]3O[C@H](CO)[C@@H](OCc4ccccc4)[C@@H]3O2)cc1` [Compound I-19], which Binding % is on record?
Its Binding % is “++ (++ indicates binding activity from greater than 5% to 10%)”.

For `C=Cc1cccc(S(=O)(=O)NC[C@@H]2C[C@@H]3O[C@H](CO)[C@@H](OCc4ccccc4)[C@@H]3O2)c1` [Compound I-20], which Binding % is on record?
Its Binding % is “+++ (+++ indicates binding activity from greater than 10% to 15%)”.

How did the Binding % turn out when `C=CS(=O)(=O)NCCOc1ccc2ccccc2c1` [II-1] was run?
The Binding % was “+++ (+++ indicates binding activity from greater than 10% to 15%)”.

Which Binding % does the source give for `C=CS(=O)(=O)NCCOc1cccc2ccccc12` [II-2] here?
Its Binding % is “+++ (+++ indicates binding activity from greater than 10% to 15%)”.

`C=CS(=O)(=O)NCCNc1cccc2ccccc12` [II-3] was tested. Which Binding % did it give?
Its Binding % is “+++ (+++ indicates binding activity from greater than 10% to 15%)”.

`C=CS(=O)(=O)NCCNc1ccc2ccccc2c1` [II-4] was tested. Which Binding % did it give?
Its Binding % is “++ (++ indicates binding activity from greater than 5% to 10%)”.

`C=Cc1ccc(S(=O)(=O)NCCNc2ccc3ccccc3c2)cc1` [II-5] was tested. Which Binding % did it give?
The Binding % was “++ (++ indicates binding activity from greater than 5% to 10%)”.

How did the Binding % turn out when `C=Cc1ccc(S(=O)(=O)NCCOc2ccc3ccccc3c2)cc1` [II-6] was run?
The Binding % was “+++ (+++ indicates binding activity from greater than 10% to 15%)”.

`C=Cc1cccc(S(=O)(=O)NCCOc2cccc3ccccc23)c1` [II-7] was tested. Which Binding % did it give?
Its Binding % is “++ (++ indicates binding activity from greater than 5% to 10%)”.

Which Binding % does the source give for `C=Cc1cccc(S(=O)(=O)NCCOc2ccc3ccccc3c2)c1` [II-8] here?
Its Binding % is “+++ (+++ indicates binding activity from greater than 10% to 15%)”.

Which Binding % does the source give for `C=Cc1ccccc1S(=O)(=O)NCCOc1ccc2ccccc2c1` [II-9] here?
The Binding % was “++ (++ indicates binding activity from greater than 5% to 10%)”.

How did the Binding % turn out when `C=Cc1ccc(S(=O)(=O)NCCNc2cccc3ccccc23)cc1` [II-10] was run?
The Binding % was “+++ (+++ indicates binding activity from greater than 10% to 15%)”.

Which Binding % does the source give for `C=Cc1ccccc1S(=O)(=O)NCCNc1cccc2ccccc12` [II-11] here?
Its Binding % is “++++ (++++ indicates binding activity from greater than 15%)”.

With `C=Cc1ccccc1S(=O)(=O)NCCOc1cccc2ccccc12` [II-12] as the compound, how does the Binding % read?
Its Binding % is “+++ (+++ indicates binding activity from greater than 10% to 15%)”.

Which Binding % does the source give for `C=Cc1ccccc1S(=O)(=O)NCCNc1ccc2ccccc2c1` [II-13] here?
The Binding % was “+++ (+++ indicates binding activity from greater than 10% to 15%)”.
